According to patent publication US8460669B2, “Compositions and methods for identifying response targets and treating flavivirus infection responses” (Academia Sinica, priority 2005, dated 2013):
“Also recorded” adds a separate entry of the source.

T1: KCR.Fc (Mus musculus, UniProt P70194)
T1 construct: the extracellular domains of DVLR1/CLEC5A (MDL-1), Dectin-1, KCR, and DC-SIGN (as a positive control) were fused to the Fc portion of human IgG1; made in house; host or cells: 293-F (FreeStyle 293) cells
T1 sequence (P70194 70-548 limits assumed): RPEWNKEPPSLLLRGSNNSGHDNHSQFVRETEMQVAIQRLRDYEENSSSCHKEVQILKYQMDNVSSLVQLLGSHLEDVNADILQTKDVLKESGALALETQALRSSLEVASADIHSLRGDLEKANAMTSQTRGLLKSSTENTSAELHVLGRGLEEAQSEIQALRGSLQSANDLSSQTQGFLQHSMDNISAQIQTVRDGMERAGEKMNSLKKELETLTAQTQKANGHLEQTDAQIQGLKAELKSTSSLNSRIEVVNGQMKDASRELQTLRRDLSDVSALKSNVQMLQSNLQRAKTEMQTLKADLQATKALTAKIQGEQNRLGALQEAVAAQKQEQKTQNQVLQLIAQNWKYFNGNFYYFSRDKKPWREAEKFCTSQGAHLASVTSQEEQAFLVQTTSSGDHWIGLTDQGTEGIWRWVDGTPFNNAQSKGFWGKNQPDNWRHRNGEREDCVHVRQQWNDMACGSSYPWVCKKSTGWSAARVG

T2: TLT-2.Fc (Homo sapiens, UniProt Q5T2D2)
T2 construct: The extracellular domains of lectin receptors, TREMs and TLTs were cloned by the reverse-transcriptase polymerase chain reaction (RT-PCR); made in house; host or cells: 293-F (FreeStyle 293) cells
T2 sequence (Q5T2D2 19-268 limits assumed): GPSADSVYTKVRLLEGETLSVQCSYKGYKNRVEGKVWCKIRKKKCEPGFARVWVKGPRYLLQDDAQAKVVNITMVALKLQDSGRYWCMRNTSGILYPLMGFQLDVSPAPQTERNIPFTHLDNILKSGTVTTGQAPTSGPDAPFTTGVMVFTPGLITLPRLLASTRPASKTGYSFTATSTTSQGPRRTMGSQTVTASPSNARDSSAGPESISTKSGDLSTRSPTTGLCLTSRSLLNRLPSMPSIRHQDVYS

T3: Dectin-1.Fc (Homo sapiens, UniProt Q9BXN2)
T3 construct: The extracellular domains of lectin receptors, TREMs and TLTs were cloned by the reverse-transcriptase polymerase chain reaction (RT-PCR); made in house; host or cells: 293-F (FreeStyle 293) cells
T3 sequence (Q9BXN2 66-247 limits assumed): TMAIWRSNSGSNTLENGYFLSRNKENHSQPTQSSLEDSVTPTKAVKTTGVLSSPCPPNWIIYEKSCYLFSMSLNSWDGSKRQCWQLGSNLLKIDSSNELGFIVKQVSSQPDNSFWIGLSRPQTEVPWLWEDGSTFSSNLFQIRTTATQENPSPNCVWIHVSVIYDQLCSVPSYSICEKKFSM

T4: DC-SIGNR.Fc (Homo sapiens, UniProt Q9H2X3)
T4 construct: The extracellular domains of lectin receptors, TREMs and TLTs were cloned by the reverse-transcriptase polymerase chain reaction (RT-PCR); made in house; host or cells: 293-F (FreeStyle 293) cells
T4 sequence (Q9H2X3 71-399): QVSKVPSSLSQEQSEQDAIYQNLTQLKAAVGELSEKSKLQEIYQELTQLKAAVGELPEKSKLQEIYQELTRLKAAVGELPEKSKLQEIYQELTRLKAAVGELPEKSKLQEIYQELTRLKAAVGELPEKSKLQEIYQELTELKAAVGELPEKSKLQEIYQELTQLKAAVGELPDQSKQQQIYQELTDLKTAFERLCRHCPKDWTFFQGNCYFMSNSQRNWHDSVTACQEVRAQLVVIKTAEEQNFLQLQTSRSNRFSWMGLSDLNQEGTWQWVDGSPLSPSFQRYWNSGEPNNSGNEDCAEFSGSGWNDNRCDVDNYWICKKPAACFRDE

B1: Fc.DC-SIGN: DC-SIGN (CLEC4L) extracellular domain fused to human IgG1 Fc (protein)
chain: QVSKVPSSISQEQSRQDAIYQNLTQLKAAVGELSEKSKLQEIYQELTQLKAAVGELPEKSKLQEIYQELTRLKAAVGELPEKSKLQEIYQELTWLKAAVGELPEKSKMQEIYQELTRLKAAVGELPEKSKQQEIYQELTRLKAAVGELPEKSKQQEIYQELTRLKAAVGELPEKSKQQEIYQELTQLKAAVERLCHPCPWEWTFFQGNCYFMSNSQRNWHDSITACKEVGAQLVVIKSAEEQNFLQLQSSRSNRFTWMGLSDLNQEGTWQWVDGSPLLPSFKQYWNRGEPNNVGEEDCAEFSGNGWNDDKCNLAKFWICKKSAASCSRDEEQFLSPAPATPNPPPA
modifications: left off: a dimerising Fc or GST

Columns and labels:
[1] = Enzyme linked immunoassay of receptor.Fc fusions on immobilized GLPS-F3; assay type: binding, Ganoderma lucidum; details: GLPS-F3 100 ng/well; receptor.Fc 1 μg/ml
Protocol: The interactions of polysaccharides with receptor.Fc fusion proteins was further investigated by performing an enzyme-linked immunoassay, which was based on immobilizing GLPS-F3 through both hydrophilic and hydrophobic forces onto microtiter plates (polysytrene). In this format, the number of different receptor.Fc fusions for profiling was increased in comparison to Example 7. To optimize the quantity of GLPS-F3 for immobilization, various amounts (3-1000 ng/well, diluted in 100 mM Tris buffer, pH9.5) of biotinylated-GLPS-F3 (Biotin-GLPS-F3) were coated onto MaxiSorp StarWell microtiter plates (50 μL/well; Nunc). The plates were incubated overnight at 4° C., and then the wells were washed twice with TBST, followed by blocking with 200 μL blocking buffer (2% BSA/TBST) for 1 hour at room temperature. Peroxidase-conjugated avidin (1:5000 dilution, Vector Laboratories) and TMB (tetramethylbenzidine) substrate was then used for detection of immobilized biotinylated GLPS-F3.
The interaction between GLPS-F3 and receptor.Fc was then tested. […] Wells were incubated with 100 μL TMB substrate for 15 min after TBST washing and read at 450 nm in a Fusion plate reader (Perkin Elmer). […]

Dengue virus [2] = experiment: ELISA of receptor.Fc interaction with Dengue virus; assay type: binding; details: for interaction of receptor.Fc with Dengue virus (ELISA): receptor.Fc 1 μg, DV 5×10^6
Protocol: One μg of each receptor.Fc fusion protein was coated onto microtiter plates overnight at 4° C. DV (5×10^6 particles) of strain 16681 (a DEN2 strain) in binding buffer (1% BSA, 2 mM CaCl2, 2 mM MgCl2, 50 mM Tris-HCl pH 7.5, 150 mM NaCl) was then added to the plates and the plates were incubated for 2 hours. After washing non-bound virus, a biotinylated anti-DEN2 envelope protein antibody (Wu et al., J Virol, 2002. 76(8): p. 3596-604) was applied to bind to the virus for 1 hour. Diluted horseradish peroxidase-conjugated streptavidin was then added to the plates, followed by a 1 hour incubation. TMB substrate was then added and the plates were read using an ELISA reader at OD450 nm.
The microtiter plate assay was repeated in the presence of EDTA (10 mM) to chelate Ca^++ cations.
The microtiter plate assay was also repeated for DVLR1/CLEC5A.Fc fusion protein with DV particles (5×10^6) that had been 1) preincubated with 500 U of the glycosidase PNGaseF (New England Biolabs, Inc.) overnight at 37° C.; or 2) treated with dithiothreitol (DTTI) (0.1M); or 3) incubated at 95° C. for 5 minutes; or 4) UV irradiated for 5 minutes. The results are shown in FIG. 8D (asterisks indicate where the binding affinity of DVLR1/CLEC5A.Fc fusion protein is altered by modification of the virus relative to non-treated virus; ** p<0.01, *** p<0.001, Student's t test). […]

KCR.Fc = target: T1, KCR.Fc; experiment: Immunosorbent dot binding assay with KCR.Fc; details: EDTA 10 mM in TBST
TLT-2.Fc = target: T2, TLT-2.Fc; experiment: Immunosorbent dot binding assay with TLT-2.Fc; details: EDTA 10 mM in TBST
Dectin-1.Fc = target: T3, Dectin-1.Fc; experiment: Immunosorbent dot binding assay with Dectin-1.Fc; details: competitor 0.1 μg-1000 μg, or EDTA 10 mM in TBST
DC-SIGNR.Fc = target: T4, DC-SIGNR.Fc; experiment: Immunosorbent dot binding assay with DC-SIGNR.Fc; details: EDTA 10 mM in TBST
Dengue virus [3] = experiment: Immunoprecipitation of Dengue virus with receptor.Fc; assay type: binding; details: receptor.Fc 5 μg; DV 5×10^6; listed as DC-SIGN.Fc
Protocol: The results are depicted in FIG. 8A (** indicates p<0.01, *** indicates p<0.001 (Student's t test)). […] Specifically, 5×10^6 Dengue virus particles were incubated with 5 μg of each protein, and then Protein A beads were added. The resulting immunocomplexes were washed, separated by SDS-PAGE, and transferred onto nitrocellulose membrane. The membrane was then probed with biotinylated anti-DEN2 envelope protein antibody and developed with horseradish peroxidase-conjugated streptavidin.
In FIG. 16b, complexes of DV (5×10^6 PFU) with receptor.Fc (5 μg) were immunoprecipitated and detected on westerns with mAb to DV envelope (E) protein. […] FIGS. 16d and 16e show sugar competition assays wherein both DC-SIGN (CLEC4L) and DVLR1/CLEC5A increase DV binding to human 293T cells (FIG. 16d), while addition of sugars inhibits biotinylated DV binding to DC-SIGN- (left panel) or DLVR1/CLEC5A- (right panel) transfected 293T cells in a dose-dependent manner as determined by flow cytometry (FIG. 16e). According to FIG. 16e, MFI represents mean fluorescence intensity. Units (U) for monosaccharide (mannose and fucose) and polysaccharide (mannan) are mM and mg/ml, respectively. […] Data are expressed as the mean±s.d. of three independent experiments. Two-tailed, Student's t-tests were performed. […]

Row | Molecule | binding ability to GLPS-F3 [1] | interaction of receptor.Fc with Dengue virus (ELISA) (Dengue virus [2]) | inhibition of the interaction of F3 with KCR.Fc (KCR.Fc) | inhibition of the interaction of F3 with TLT2.Fc (TLT-2.Fc) | inhibition of the interaction between Dectin-1.Fc and F3 (Dectin-1.Fc) | inhibition of the interaction of F3 with DC-SIGNR.Fc (DC-SIGNR.Fc) | immunoprecipitation of Dengue virus (E protein detected) (Dengue virus [3]) | binding to DV pretreated with heat or dithiothreitol (Dengue virus [2]; 95° C. 5 min or DTT 0.1 M) | Ca^++ dependence of binding to Dengue virus (Dengue virus [2]; EDTA 10 mM) | interaction of receptor.Fc with Dengue virus (ELISA) (Dengue virus [2]; listed as DC-SIGN.Fc)
1 | Fc.DC-SIGNR: DC-SIGNR (CLEC4M) receptor.Fc fusion protein | minimal binding ability | able to capture DV2 | – | – | – | – | – | – | – | –
2 | O=C(O)CN(CCN(CC(=O)O)CC(=O)O)CC(=O)O [EDTA, Ethylene Diamine Tetra Acetic Acid] | – | – | completely oabolished | not | not | completely oabolished | – | – | – | –
3 | B1 | – | binds | – | – | – | – | able to immunoprecipitate DV; also recorded: detected | not | Ca^++ dependent; also recorded: Ca^++-dependent | able to capture DV2
